PMC3130629 (Free radical biology & medicine, 2011)

What was measured:
[1] = test system: XO bound to BAEC GAGs (endothelial cell-bound XO); assay: Inhibition of endothelial cell-bound XO, uric acid formation; assay type: cell-based, bovine; conditions: for Inhibition of endothelial cell GAG-bound XO (uric acid formation): even at concentrations above those tolerated clinically (e.g. 200 μM)
[2] = test system: XO bound to BAEC GAGs (endothelial cell-bound XO); assay: Inhibition of endothelial cell-bound XO, extracellular O2•- by EPR with PPH; assay type: cell-based, bovine; conditions: xanthine 100 μM, 37°C
xanthine oxidase (XO) = assay: O2•- formation from reaction of inhibitor with purified XO; assay type: biochemical; conditions: XO 10 mU/ml; allopurinol 50 μM, febuxostat 100 nM; cytochrome c reduction
XO = conditions: read-out: Ki for XO; pH 8.5; cited from earlier work
[3] = cited from earlier work
[4] = target: xanthine oxidase (XO), free in solution (Bos taurus, UniProt P80457); assay: Inhibition of XO free in solution, uric acid formation; assay type: biochemical; conditions: soluble and HS6B-XO, 0.96 and […] vs ref 16
[5] = target: HS6B-XO (GAG-immobilized xanthine oxidase) (Bos taurus, UniProt P80457)
soluble XO = conditions: read-out: Ki, soluble XO; cited from earlier work
GAG-bound XOR = conditions: read-out: Ki, GAG-bound XOR; cited from earlier work

Sequence of xanthine oxidase (XO), free in solution (P80457 whole entry): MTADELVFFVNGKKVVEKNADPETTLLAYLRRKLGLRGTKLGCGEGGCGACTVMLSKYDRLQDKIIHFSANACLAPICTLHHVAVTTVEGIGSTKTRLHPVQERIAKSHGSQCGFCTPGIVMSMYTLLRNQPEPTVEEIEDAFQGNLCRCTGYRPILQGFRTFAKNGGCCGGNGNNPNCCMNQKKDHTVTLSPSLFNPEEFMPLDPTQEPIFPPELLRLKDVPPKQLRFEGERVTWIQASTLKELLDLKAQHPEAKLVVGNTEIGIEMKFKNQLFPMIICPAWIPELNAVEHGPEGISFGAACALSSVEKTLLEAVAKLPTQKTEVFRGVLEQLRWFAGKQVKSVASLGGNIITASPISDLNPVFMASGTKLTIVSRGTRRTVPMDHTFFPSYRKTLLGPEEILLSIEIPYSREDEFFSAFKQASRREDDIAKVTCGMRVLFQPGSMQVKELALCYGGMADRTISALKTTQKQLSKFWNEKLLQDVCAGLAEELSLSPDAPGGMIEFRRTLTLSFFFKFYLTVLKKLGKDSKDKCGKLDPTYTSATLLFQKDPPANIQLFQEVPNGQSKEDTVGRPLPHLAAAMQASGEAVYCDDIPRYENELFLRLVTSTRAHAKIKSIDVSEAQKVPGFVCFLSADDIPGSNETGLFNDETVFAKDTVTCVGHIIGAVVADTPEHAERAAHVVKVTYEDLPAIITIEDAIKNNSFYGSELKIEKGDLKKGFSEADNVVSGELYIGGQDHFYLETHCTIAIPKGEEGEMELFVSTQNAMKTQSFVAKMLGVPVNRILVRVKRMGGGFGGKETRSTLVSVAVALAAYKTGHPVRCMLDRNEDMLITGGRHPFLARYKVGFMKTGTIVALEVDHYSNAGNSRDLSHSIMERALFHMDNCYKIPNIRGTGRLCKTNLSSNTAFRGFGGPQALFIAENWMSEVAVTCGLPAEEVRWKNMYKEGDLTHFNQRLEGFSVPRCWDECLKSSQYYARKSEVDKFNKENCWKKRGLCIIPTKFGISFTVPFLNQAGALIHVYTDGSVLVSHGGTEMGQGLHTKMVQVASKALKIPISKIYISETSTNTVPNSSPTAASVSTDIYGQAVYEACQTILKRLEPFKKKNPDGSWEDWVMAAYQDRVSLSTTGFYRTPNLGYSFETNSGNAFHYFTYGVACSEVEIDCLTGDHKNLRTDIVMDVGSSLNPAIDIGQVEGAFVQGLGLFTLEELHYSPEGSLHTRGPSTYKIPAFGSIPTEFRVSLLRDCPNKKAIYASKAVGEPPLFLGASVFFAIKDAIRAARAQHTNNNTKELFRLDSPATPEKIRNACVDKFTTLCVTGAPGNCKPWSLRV
Sequence of HS6B-XO (GAG-immobilized xanthine oxidase) (P80457 whole entry): as above

Structure (SMILES)	Inhibition of endothelial cell GAG-bound XO (uric acid formation) [1]	Reduction of cell-bound O2•- radical formation (EPR, PP• radical) ([2]; 200 μM) [%]	O2•- formation on exposure of purified XO to the inhibitor (xanthine oxidase (XO))	Ki (XO) [nM]	Concentrations seen clinically [3] [µM]	Ki (pH 7.4) higher than previously reported Ki (pH 8.5) [4]	Inhibition of uric acid formation from endothelial cell-bound XO ([1]; 25 nM febuxostat, xanthine 100 μM, 1 h)	Reduction of cell-bound O2•- production (EPR, PP• radical) ([2]; 50 nM) [%]	Concentration giving complete inhibition of uric acid and O2•- production from HS6B-XO [5] [nM]	Cmax ([3]; reported) [µM]	Ki (soluble XO) [nM]	Ki (GAG-bound XOR) [nM]
Oc1ncnc2[nH]ncc12 [allopurinol]	no more than 80%	80	significant O2 ^•- formation	700	20 to 90	–	–	–	–	–	–	–
Cc1nc(-c2ccc(OCC(C)C)c(C#N)c2)sc1C(=O)O [febuxostat]	–	–	no detectable O2 ^•-	0.12	–	~ 8 fold	completely inhibited	100	≤ 50	15	–	–
O=c1[nH]c(=O)c2c[nH]nc2[nH]1 [oxypurinol]	no more than 80%	–	–	–	20 to 90	–	–	–	–	–	230	405
